PMC10374545, “A small molecule inhibitor of PTP1B and PTPN2 enhances T cell anti-tumor immunity” (Nature Communications, 2023)
Values joined by “and” are separate entries in the source; they are usually repeats but may differ in a detail not shown here. Equal values may be shown once.

Tests used:
AT3-OVA mammary tumors = experiment: AT3-OVA mammary tumor growth in C57BL/6 mice; assay type: in vivo, mouse; set-up: Tumour weights, individual mice: unit not given here; details: for Tumour growth, individual mice: Figure 5A; for Tumour growth, single mice: sizes in mm^2, Fig. 3A, listed as CMP-182, 10 mg/kg
Experimental: Male or female mice were injected subcutaneously with 5 × 10^5 MC38 tumor cells resuspended in 100 μl D-PBS into the flank. Alternatively, female mice were injected orthotopically with 5 × 10^5 AT3 or AT3-OVA or PTPN2-deleted AT3 or AT3-OVA tumor cells resuspended in 20 μl D-PBS into the fourth mammary fat pad. Tumor sizes were measured in two dimensions (mm^2) using electronic callipers two to three times per week as soon as tumors were palpable (20–25 mm^2).

[1] = tested on: SFK Y418 phosphorylation in naive CD8+ T cells; experiment: TCR signaling, p-SFK (Y418) by flow cytometry; assay type: cell-based, mouse; details: for p-SFK MFI, single replicates: 10 μM 4 h, Fig. 2D raw data, listed as CMP-182
Experimental: For assessing TCR signaling, single-cell suspensions of naïve (CD44^loCD62L^hi) lymph node CD8^+ T cells (isolated using the EasySep™ Mouse Naïve CD8^+ T cell Isolation Kit, Stemcell Technologies) were washed with ice-cold PBS supplemented with 2% (v/v) FBS and stained with fixable viable dye and fluorophore-conjugated antibodies to CD8 and CD4 on ice for 15 min. […] Cells were then incubated with 5 μg/ml hamster α-mouse CD3ε for 20 min on ice, washed with complete T cell medium supplemented with 1% (v/v) FBS, and then TCR cross-linked with goat α-hamster IgG (20 μg /ml, Sigma) for the indicated times at 37 °C. The reaction was terminated by the addition of paraformaldehyde (BD Cytofix™ Fixation Buffer) to a final concentration of 2% (v/v) on ice for 20 min. Fixed cells were washed in complete T cell medium/1% (v/v) FBS and permeabilised with 90% (v/v) methanol on ice for 30 min. Permeabilised cells were stained with fluorophore-conjugated antibodies to Y418 phosphorylated and activated SFKs (p-SFK; 1:100, Invitrogen) for 1 h at room temperature; p-SFK mean fluorescence intensities in CD8^+ T cells were determined by flow cytometry.

[2] = tested on: STAT-1 target genes in AT3 tumors; experiment: qPCR of STAT-1 target genes in AT3 tumors; assay type: in vivo, mouse
Experimental: For quantitative real-time PCR analysis, RNA from tumors was isolated using RNAzol (Sigma-Aldrich, St. Louis, MO), and RNA quality was assessed using a NanoDrop 2000 (Thermo Fisher Scientific, Waltham MA). mRNA was reverse-transcribed using the High-Capacity cDNA Reverse Transcription Kit (Applied Biosystems, Thermo Fisher Scientific, Waltham, MA) and processed for quantitative Real-Time PCR using the Fast SYBR Green Master Mix (Applied Biosystems, Thermo Fisher Scientific, Waltham MA) and PrimePCR™ SYBR Green Assays (Bio-Rad, Hercules, CA) for Cxcl9 (qMmuCID0023784), Cxcl10 (qMmuCED0049500), Tapbp (qMmuCEP0035035), Tap1 (qMmuCEP0057739), […], H2ab1 (qMmuCIP0029038), Cd274 (qMmuCED0044192), H2k1 (qMmuCEP0034842), Tnf (qMmuCED0004141) and Ifng (qMmuCID0006268). Relative gene expression was determined by normalization to the house-keeping gene Rps18 (qMmuCED0045430) or Gapdh (qMmuCED0027497). Gene quantification was performed with the comparative Ct (ΔΔCt) method.

[3] = Figure 9A, qPCR in tumour, individual mice, CMP-182 vs Saline

SMILES: CC(C)(O)CCOc1ccc2cc(O)c(N3CC(=O)NS3(=O)=O)c(F)c2c1 [Compound 182, 5-(1-Fluoro-3-hydroxy-7-(3-hydroxy-3-methylbutoxy)naphthalen-2-yl)−1,2,5-thiadiazolidin-3-one 1,1-dioxide]
- repression of tumor growth, dosing every two days compared with every three days (AT3-OVA mammary tumors; 10 mg/kg i.v.): more pronounced
- AT3-OVA tumor growth, administration every three days (AT3-OVA mammary tumors; 10 mg/kg i.v., days 9-27, Supplementary Fig. 8): represses
- growth of AT3-OVA mammary tumors (AT3-OVA mammary tumors; 10 mg/kg intravenously every 2 days or every 3 days): effectively repressed the growth
- Tumour weight d21 (median) (AT3-OVA mammary tumors; AT-3-OVA, Figure 3A, column B, n=8): 100.0, n=8
- Tumour weights, individual mice (AT3-OVA mammary tumors; C57BL/6, CMP-182 10 mg, n=8, Figure 5B): 126 and 340 and 344 and 76 and 85 and 190 and 183 and 281
- Tumour growth, individual mice (AT3-OVA mammary tumors; C57BL/6, CMP-182 10 mg, n=8, day 0 post injection, in mm2): 38.86 and 38.76 and 36.96 and 20 and 19.89 and 39.65 and 32.33 and 44.53
- Tumour growth, individual mice (AT3-OVA mammary tumors; C57BL/6, CMP-182 10 mg, n=8, day 2 post injection, in mm2): 46.62 and 45 and 45.75 and 21.2 and 22.26 and 46.15 and 36.4 and 52
- Tumour growth, individual mice (AT3-OVA mammary tumors; C57BL/6, CMP-182 10 mg, n=8, day 4 post injection, in mm2): 40.6 and 37.95 and 45.6 and 22.4 and 21.42 and 37.21 and 29.5 and 55.61
- Tumour growth, individual mice (AT3-OVA mammary tumors; C57BL/6, CMP-182 10 mg, n=8, day 7 post injection, in mm2): 35.1 and 40.02 and 49.4 and 25.2 and 27.54 and 44.85 and 32.5 and 53.6
- Tumour growth, individual mice (AT3-OVA mammary tumors; C57BL/6, CMP-182 10 mg, n=8, day 9 post injection, in mm2): 40.2 and 41.76 and 56.44 and 28.35 and 33.04 and 52.56 and 37.95 and 65.25
- Tumour growth, individual mice (AT3-OVA mammary tumors; C57BL/6, CMP-182 10 mg, n=8, day 12 post injection, in mm2): 40.8 and 47.74 and 66.43 and 30.15 and 33.63 and 55.5 and 42 and 70.2
- Tumour growth, individual mice (AT3-OVA mammary tumors; C57BL/6, CMP-182 10 mg, n=8, day 15 post injection, in mm2): 42 and 55.44 and 75.75 and 31.5 and 34.22 and 60.84 and 45.26 and 76
- Tumour size AT-3-OVA (group mean) (AT3-OVA mammary tumors; C57BL/6 n=8, time point 6, in mm2): 21.8
- Tumour size AT-3-OVA (group mean) (AT3-OVA mammary tumors; C57BL/6 n=8, time point 8, in mm2): 21.97
- Tumour size AT-3-OVA (group mean) (AT3-OVA mammary tumors; C57BL/6 n=8, time point 10, in mm2): 23.3
- Tumour size AT-3-OVA (group mean) (AT3-OVA mammary tumors; C57BL/6 n=8, time point 13, in mm2): 25.76
- Tumour size AT-3-OVA (group mean) (AT3-OVA mammary tumors; C57BL/6 n=8, time point 15, in mm2): 29.09
- Tumour size AT-3-OVA (group mean) (AT3-OVA mammary tumors; C57BL/6 n=8, time point 17, in mm2): 31.79
- Tumour size AT-3-OVA (group mean) (AT3-OVA mammary tumors; C57BL/6 n=8, time point 19, in mm2): 33.9
- Tumour size AT-3-OVA (group mean) (AT3-OVA mammary tumors; C57BL/6 n=8, time point 21, in mm2): 36.99
- Tumour size AT-3-OVA (group mean) (AT3-OVA mammary tumors; C57BL/6 n=8, time point 23, in mm2): 41.18
- Tumour size AT-3-OVA, mean over all time points (AT3-OVA mammary tumors; C57BL/6 n=8, two-way RM ANOVA column mean, in mm2): 29.53
- Tumour growth, single mice (AT3-OVA mammary tumors; day 6 post injection (first dose), 10 mg/kg i.v., in mm2): 22.54 and 20.7 and 19.36 and 20.25 and 18.49 and 22.09 and 26.95 and 24
- Tumour growth, single mice (AT3-OVA mammary tumors; day 8 post injection, 10 mg/kg i.v., in mm2): 22.08 and 20.7 and 20.68 and 20.91 and 19.78 and 21.15 and 25.97 and 24.48
- Tumour growth, single mice (AT3-OVA mammary tumors; day 10 post injection, 10 mg/kg i.v., in mm2): 27.56 and 22.95 and 17.6 and 23.1 and 20.64 and 23.04 and 23.65 and 27.84
- Tumour growth, single mice (AT3-OVA mammary tumors; day 15 post injection, 10 mg/kg i.v., in mm2): 37.95 and 25.76 and 21.12 and 24.36 and 20.64 and 28.62 and 35.75 and 38.5
- Tumour growth, single mice (AT3-OVA mammary tumors; day 23 post injection, 10 mg/kg i.v., in mm2): 43.55 and 30 and 34.02 and 32.76 and 29.15 and 54.51 and 48.18 and 57.27
- p-SFK MFI, single replicates ([1]; TCR cross-linking time 0): 92.6 and 93.9 and 88
- p-SFK MFI, single replicates ([1]; TCR cross-linking time 2): 252 (2×) and 216
- p-SFK MFI, single replicates ([1]; TCR cross-linking time 5): 211 and 192 and 269
- p-SFK MFI, single replicates ([1]; TCR cross-linking time 10): 178 and 172 and 193
- p-SFK, column mean ([1]; 10 uM, mean over all times, two-way ANOVA, Fig. 2D): 184.1
- p-SFK, group mean (Mean 2) ([1]; 10 uM, time 0, N 3, Fig. 2D): 91.5
- p-SFK, group mean (Mean 2) ([1]; 10 uM, time 2, N 3, Fig. 2D): 240
- p-SFK, group mean (Mean 2) ([1]; 10 uM, time 5, N 3, Fig. 2D): 224
- p-SFK, group mean (Mean 2) ([1]; 10 uM, time 10, N 3, Fig. 2D): 181
- TCR-induced SFK Y418 phosphorylation (p-SFK) ([1]; α-CD3/IgG crosslinking): enhanced
- expression of STAT-1 target genes, including Cd274, in AT3 tumors ([2]; 10 mg/kg i.v.): increased expression
- cd274 [2, 3]: 1.71 and 1.441 and 1.3642 and 1.436 and 2.196 and 0.7307
- cxcl9 [2, 3]: 2.179 and 2.3662 and 1.906 and 0.2814 and 3.487 and 0.6344
- cxcl10 [2, 3]: 1.765 and 1.612 and 1.49 and 0.6644 and 2.144 and 0.8593
